Reference: ChEMBL document CHEMBL1201862, “PubChem BioAssay data set” (2004)
Active and inactive are the calls of the source.

Experiments:
Large T antigen = Large T antigen (Simian virus 40, UniProt P03070); format: functional, Betapolyomavirus macacae;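 further: Confirmatory-stage PubChem screen for compounds that inhibit SV40 T antigen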
Protein RecA = molecular target: T1, Protein RecA (Mycobacterium tuberculosis, UniProt P9WHJ3); assay: Fluorescence Cell-Free Homogeneous Dose Retest to Identify Inhibitors of RecA-Intein Splicing Activity. [Related pubchem assays (depositor defined):AID2097, AID2223, AID489010, AID492950]; format: functional
T1 sequence (P9WHJ3 whole entry): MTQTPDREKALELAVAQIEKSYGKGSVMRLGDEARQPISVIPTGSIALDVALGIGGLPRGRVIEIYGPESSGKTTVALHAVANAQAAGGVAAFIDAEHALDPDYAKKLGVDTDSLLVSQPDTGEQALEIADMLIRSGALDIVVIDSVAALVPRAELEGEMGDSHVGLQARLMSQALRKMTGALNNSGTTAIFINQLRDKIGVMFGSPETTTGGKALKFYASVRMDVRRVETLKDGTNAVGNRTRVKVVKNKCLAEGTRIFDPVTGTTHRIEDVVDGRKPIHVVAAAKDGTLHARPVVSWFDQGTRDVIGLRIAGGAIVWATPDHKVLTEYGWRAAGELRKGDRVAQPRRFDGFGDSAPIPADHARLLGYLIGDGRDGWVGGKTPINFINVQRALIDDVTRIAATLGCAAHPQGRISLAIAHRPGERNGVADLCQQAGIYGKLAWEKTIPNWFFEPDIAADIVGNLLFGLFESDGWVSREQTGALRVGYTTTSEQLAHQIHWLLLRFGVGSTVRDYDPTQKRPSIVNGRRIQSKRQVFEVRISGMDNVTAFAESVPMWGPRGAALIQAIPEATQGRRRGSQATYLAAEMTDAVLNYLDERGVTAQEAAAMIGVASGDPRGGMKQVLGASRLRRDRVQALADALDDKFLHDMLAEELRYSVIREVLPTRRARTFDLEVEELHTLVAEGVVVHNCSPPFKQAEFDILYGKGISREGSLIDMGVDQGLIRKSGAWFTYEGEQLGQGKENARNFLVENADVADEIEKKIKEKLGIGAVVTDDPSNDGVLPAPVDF

[1] = molecular target: Peroxisome proliferator-activated receptor gamma/Nuclear receptor coactivator 3 (Homo sapiens, UniProt P37231); assay: TR-FRET dose response biochemical High Throughput Screening assay for agonists of the steroid receptor coactivator 3 (SRC-3) recruitment by the peroxisome proliferator-activated receptor gamma (PPAR gamma): non-selective agonists. [Related pubchem assays: 1301 (Confirmation screen.), 1048 (Primary screen.)]; format: functional
[2] = molecular target: Peroxisome proliferator-activated receptor gamma/Nuclear receptor coactivator 2 (Homo sapiens, UniProt P37231); assay: TR-FRET dose response biochemical High Throughput Screening assay for agonists of the steroid receptor coactivator 2 (SRC-2) recruitment by the peroxisome proliferator-activated receptor gamma (PPAR gamma): non-selective agonists. [Related pubchem assays: 1297, 1032 ]; format: functional
[3] = inhibition of K1F phage lysis, E. coli UTI89, bacterial capsule biogenesis inhibitors, alamar blue (AID 488966); format: functional
[4] = molecular target: T2, Endoribonuclease toxin MazF (Escherichia coli K-12, UniProt P0AE70); assay: fluorescent RNA oligo signal without MazF, dose response, counter-screen for MazEF activator project, biochemical, fluorescence, single-stranded RNase substrate (AID 588502); format: functional
T2 sequence (P0AE70 whole entry): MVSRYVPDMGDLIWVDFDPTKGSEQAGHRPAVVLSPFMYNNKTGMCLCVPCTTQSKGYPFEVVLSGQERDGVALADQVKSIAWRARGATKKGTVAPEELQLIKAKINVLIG

[5] = molecular target: Peroxisome proliferator-activated receptor gamma/Nuclear receptor coactivator 1 (Homo sapiens, UniProt P37231); assay: TR-FRET dose response biochemical High Throughput Screening assay for agonists of the steroid receptor coactivator 1 (SRC-1) recruitment by the peroxisome proliferator-activated receptor gamma (PPAR gamma): non-selective agonists. [Related pubchem assays (depositor defined):AID1300, AID1808, AID504735, AID631]; format: protein assay
Vero = Vero cell cytotoxicity, cytotoxicity control for flavivirus capping enzyme inhibitors (AID 588742); format: functional; settings: Chlorocebus sabaeus
[6] = molecular target: T2, Endoribonuclease toxin MazF; assay: MazF toxin RNase activators, dose response, biochemical, fluorescence, single-stranded RNA substrate, uHTS hits (AID 588481); format: functional
[7] = molecular target: T3, Replicative DNA helicase DnaB (Mycobacterium tuberculosis, UniProt P9WMR3); assay: DnaB intein splicing inhibitors, dose response, biochemical, cell-free fluorescence (AID 449749); format: functional
T3 sequence (P9WMR3 whole entry): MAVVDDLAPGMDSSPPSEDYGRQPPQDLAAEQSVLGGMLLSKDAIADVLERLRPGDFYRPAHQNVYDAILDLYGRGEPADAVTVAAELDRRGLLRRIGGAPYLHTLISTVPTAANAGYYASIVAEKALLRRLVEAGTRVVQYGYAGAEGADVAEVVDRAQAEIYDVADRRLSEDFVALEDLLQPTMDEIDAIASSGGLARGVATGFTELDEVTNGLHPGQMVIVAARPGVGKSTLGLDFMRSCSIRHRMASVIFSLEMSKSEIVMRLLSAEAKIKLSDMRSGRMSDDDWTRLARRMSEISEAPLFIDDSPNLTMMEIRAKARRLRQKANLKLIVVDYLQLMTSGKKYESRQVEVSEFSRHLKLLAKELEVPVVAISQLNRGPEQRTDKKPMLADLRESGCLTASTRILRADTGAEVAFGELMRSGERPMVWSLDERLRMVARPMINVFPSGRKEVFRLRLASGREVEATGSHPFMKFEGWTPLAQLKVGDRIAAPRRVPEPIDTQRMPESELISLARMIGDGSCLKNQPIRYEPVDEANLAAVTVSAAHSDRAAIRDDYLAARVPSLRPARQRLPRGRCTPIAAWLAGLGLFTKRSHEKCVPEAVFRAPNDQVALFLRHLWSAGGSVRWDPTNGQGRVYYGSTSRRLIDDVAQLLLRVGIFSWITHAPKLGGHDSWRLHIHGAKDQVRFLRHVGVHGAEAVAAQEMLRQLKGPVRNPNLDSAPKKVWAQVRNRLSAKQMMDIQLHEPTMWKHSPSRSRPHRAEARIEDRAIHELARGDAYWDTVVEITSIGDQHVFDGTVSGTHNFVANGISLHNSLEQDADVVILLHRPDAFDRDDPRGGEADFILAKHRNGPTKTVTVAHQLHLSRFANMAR

X-box-binding protein 1 = X-box-binding protein 1 (Homo sapiens, UniProt P17861); format: functional, Cricetulus griseus;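 further: confirmatory dose-response counter-screen serving a CHOP assay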
BJ [8] = assay: cells; format: functional, cell-based; settings: Homo sapiens
BJ [9] = assay: cytotoxicity toward Ras-transformed BJeLR fibroblasts, dose response, cell-based, alamar blue fluorescence, cherrypicked samples (AID 2631); format: functional; settings: Homo sapiens;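 further: confirmatory dose-response assay in RAS-dependent BJ fibroblasts engineered with TERT, LT and ST, with cytotoxicity read by fluorescence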
[10] = molecular target: Heat shock protein HSP 90-alpha (Homo sapiens, UniProt P07900); format: functional, organism-based
[11] = Fluorescence-based cell-based high throughput dose response assay for inhibitors of the interaction of nucleotide-binding oligomerization domain containing 2 (NOD2) and the receptor-interacting serine-threonine kinase 2 (RIPK2).; format: functional; settings: Homo sapiens
[12] = cytotoxicity toward DRD oncogenic fibroblasts, dose response, cell-based, non-viral oncogenic, luminescence (AID 1934); format: functional; settings: Homo sapiens
[13] = molecular target: T4, Mannose-6-phosphate isomerase (Homo sapiens, UniProt P34949); assay: inhibitors of human PMI, primary screen, biochemical, fluorescence intensity, coupled assay (AID 1209)
T4 sequence (P34949 whole entry): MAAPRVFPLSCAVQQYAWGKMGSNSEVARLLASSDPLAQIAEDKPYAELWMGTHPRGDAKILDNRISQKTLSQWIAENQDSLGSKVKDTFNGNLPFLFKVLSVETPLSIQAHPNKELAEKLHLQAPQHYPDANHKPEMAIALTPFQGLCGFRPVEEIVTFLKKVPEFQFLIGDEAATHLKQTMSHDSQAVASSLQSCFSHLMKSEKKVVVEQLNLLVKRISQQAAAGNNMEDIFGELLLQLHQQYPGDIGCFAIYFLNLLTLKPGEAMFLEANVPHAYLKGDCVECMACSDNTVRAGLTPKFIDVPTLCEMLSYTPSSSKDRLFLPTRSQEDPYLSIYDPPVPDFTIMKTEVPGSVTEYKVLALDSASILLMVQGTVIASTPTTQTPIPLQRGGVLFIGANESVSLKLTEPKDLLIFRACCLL

[14] = molecular target: Bifunctional protein GlmU (Mycobacterium tuberculosis, UniProt P9WMN3); assay: Inhibitors of Mycobacterial Glucosamine-1-phosphate acetyl transferase (GlmU). Secondary screen.; set-up: species or system Mycobacterium tuberculosis H37Rv
BJ [15] = assay: cytotoxicity toward BJ-TERT fibroblasts, dose response, cell-based, RAS-independent, luminescence (AID 1933); format: functional; settings: Homo sapiens
BJ [16] = assay: cytotoxicity toward BJ-TERT-LT-ST fibroblasts, dose response, cell-based, RAS-independent, luminescence (AID 1935); format: functional; settings: Homo sapiens;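 further: BJ fibroblasts immortalized with TERT plus LT and ST oncogenes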
[17] = molecular target: T4, Mannose-6-phosphate isomerase; assay: human PMI inhibitors, high substrate, primary screen, biochemical, fluorescence intensity, high mannose 6-phosphate (AID 1220)
J774.A1 = assay: Confirmation of image-based Screening Assay for Inhibitors of Phagocytosis. [Related pubchem assays (depositor defined):AID1029, AID1643]; format: functional, cell-based; settings: Mus musculus
[18] = molecular target: T5, Tyrosine-protein phosphatase non-receptor type 22 (Homo sapiens, UniProt Q9Y2R2); assay: LYP (PTPN22) phosphatase inhibitor potency, SAR follow-up, biochemical, pCAP fluorogenic substrate, fluorescence, set 3 (AID 449727); format: functional
[19] = molecular target: T6, G-protein coupled receptor 35 (Homo sapiens, UniProt Q9HC97); assay: SAR Analysis for the identification of Selective Antagonists of ERK1/2 Activity in GPR35-Overexpressing U2OS Cells. [Related pubchem assays: 2079, 2058 ]; format: functional, cell-based
[20] = molecular target: Tyrosine-protein phosphatase non-receptor type 12 (Homo sapiens, UniProt Q05209); assay: SAR Selectivity Analysis of small molecule inhibitors of PEST using pCAP in a fluorescence assay. [Related pubchem assays (depositor defined):AID1779, AID1784, AID2135]; format: functional
[21] = molecular target: 26S proteasome non-ATPase regulatory subunit 14 (Homo sapiens, UniProt O00487); assay: inhibition of proteasome subunit RPN11 – biochemical, fluorescence polarization, uHTS hits, confirmation (AID 602368); format: functional
[22] = molecular target: G-protein coupled receptor 55 (Homo sapiens, UniProt Q9Y2T6); assay: GPR55 antagonists, SAR follow-up, counter-screen for GPR35 antagonist project, imaging, image-based (AID 2397); format: functional
[23] = molecular target: T5, Tyrosine-protein phosphatase non-receptor type 22; assay: SAR LYP1 Fluorescent Assay using OMFP substrate for In Vitro dose response studies - Set 3. [Related pubchem assays (depositor defined):AID1779, AID1784, AID2140, AID2686]; format: functional
[24] = molecular target: 72 kDa type IV collagenase (Homo sapiens, UniProt P08253); assay: Dose Response validation of uHTS RPN11 inhibitor hits using a MMP-2 Fluorescence assay.; format: functional
Prothrombin = Prothrombin (Bos taurus, UniProt P00735); assay: thrombin inhibition, dose response, biochemical, fluorescence polarization, uHTS hits (AID 602369); format: functional
[25] = molecular target: T6, G-protein coupled receptor 35; assay: GPR35 antagonists blocking zaprinast-driven arrestin recruitment, primary screen, imaging, U2OS, beta-arrestin-GFP, zaprinast agonist (AID 2058); format: functional;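 further: antagonist potency meaning inhibition of agonist-induced arrestin redistribution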
[26] = Luminescence Cell Based Dose Confirmation HTS to Identify Activators of 5'UTR Stem-Loop Driven Alpha-Synuclein mRNA Translation in H4 Neuroglioblastoma Cells. [Related pubchem assays (depositor defined):AID1813, AID1829]; format: functional; settings: Homo sapiens
Trypsin = Trypsin (Sus scrofa, UniProt P00761); assay: porcine trypsin inhibitors, dose response, selectivity assay for Rce1 protease inhibitor project, biochemical, quenched peptide fluorescence, cherry-pick (AID 488789)
CAAX prenyl protease 2 = molecular target: T7, CAAX prenyl protease 2 (Homo sapiens, UniProt Q9Y256); assay: human Rce1 protease inhibitors, dose response, biochemical, yeast membranes, quenched-peptide fluorescence, cherry-pick (AID 588849)
T7 sequence (Q9Y256 whole entry): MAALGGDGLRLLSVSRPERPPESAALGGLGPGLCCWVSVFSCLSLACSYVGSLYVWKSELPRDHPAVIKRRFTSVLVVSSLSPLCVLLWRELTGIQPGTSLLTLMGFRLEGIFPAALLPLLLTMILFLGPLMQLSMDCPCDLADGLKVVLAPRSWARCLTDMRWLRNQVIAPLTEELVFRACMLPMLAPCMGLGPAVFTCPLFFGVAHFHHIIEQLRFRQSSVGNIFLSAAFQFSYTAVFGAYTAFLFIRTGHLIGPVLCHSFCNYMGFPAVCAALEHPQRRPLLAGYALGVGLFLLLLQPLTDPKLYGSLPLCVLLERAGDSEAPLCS

T6 sequence (Q9HC97 whole entry): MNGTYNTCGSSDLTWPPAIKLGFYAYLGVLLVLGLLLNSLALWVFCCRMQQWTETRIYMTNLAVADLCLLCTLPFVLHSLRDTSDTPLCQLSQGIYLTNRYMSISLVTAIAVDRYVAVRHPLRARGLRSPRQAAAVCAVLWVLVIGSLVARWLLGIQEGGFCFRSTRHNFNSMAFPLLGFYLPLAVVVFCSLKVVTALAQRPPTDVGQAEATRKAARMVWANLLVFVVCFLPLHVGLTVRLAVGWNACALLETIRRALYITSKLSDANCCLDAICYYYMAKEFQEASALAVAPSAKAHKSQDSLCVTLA
T5 sequence (Q9Y2R2 whole entry): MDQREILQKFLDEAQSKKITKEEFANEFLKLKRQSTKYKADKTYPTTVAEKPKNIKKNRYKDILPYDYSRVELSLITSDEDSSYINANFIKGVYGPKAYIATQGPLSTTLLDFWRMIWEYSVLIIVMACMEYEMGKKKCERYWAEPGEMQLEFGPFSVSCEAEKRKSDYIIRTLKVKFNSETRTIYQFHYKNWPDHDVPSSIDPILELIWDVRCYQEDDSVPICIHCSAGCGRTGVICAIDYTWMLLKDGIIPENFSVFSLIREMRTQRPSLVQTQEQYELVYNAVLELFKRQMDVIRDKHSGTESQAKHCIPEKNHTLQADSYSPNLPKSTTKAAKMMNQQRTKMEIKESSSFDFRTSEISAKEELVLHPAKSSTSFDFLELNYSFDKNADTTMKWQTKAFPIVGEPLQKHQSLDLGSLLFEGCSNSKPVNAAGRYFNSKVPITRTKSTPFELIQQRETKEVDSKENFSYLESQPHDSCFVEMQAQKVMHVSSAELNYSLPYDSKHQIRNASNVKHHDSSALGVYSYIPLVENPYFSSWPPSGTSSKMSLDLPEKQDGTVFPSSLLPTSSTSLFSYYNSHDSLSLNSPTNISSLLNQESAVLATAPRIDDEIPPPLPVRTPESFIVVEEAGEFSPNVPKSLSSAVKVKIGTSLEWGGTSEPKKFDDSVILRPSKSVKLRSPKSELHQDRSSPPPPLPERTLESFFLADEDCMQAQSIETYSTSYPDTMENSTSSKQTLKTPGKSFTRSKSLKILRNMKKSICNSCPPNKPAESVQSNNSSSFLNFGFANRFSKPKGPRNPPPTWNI
Chain of Peroxisome proliferator-activated receptor gamma/Nuclear receptor coactivator 3 (P37231 whole entry): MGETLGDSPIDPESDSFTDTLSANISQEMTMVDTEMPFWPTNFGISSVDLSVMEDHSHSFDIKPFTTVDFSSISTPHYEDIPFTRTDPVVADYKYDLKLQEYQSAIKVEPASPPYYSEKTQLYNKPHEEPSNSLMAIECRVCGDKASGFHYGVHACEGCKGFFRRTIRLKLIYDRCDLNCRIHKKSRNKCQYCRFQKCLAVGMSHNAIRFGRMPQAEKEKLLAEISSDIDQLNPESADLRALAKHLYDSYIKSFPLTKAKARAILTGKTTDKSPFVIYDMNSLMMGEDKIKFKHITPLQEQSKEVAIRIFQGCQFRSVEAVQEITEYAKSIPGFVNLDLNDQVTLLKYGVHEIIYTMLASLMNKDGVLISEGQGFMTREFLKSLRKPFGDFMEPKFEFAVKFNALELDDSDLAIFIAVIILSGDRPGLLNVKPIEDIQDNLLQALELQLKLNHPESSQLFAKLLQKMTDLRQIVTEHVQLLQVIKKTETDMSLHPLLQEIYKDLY
Chain of Peroxisome proliferator-activated receptor gamma/Nuclear receptor coactivator 3 (Q9Y6Q9 whole entry, further chain): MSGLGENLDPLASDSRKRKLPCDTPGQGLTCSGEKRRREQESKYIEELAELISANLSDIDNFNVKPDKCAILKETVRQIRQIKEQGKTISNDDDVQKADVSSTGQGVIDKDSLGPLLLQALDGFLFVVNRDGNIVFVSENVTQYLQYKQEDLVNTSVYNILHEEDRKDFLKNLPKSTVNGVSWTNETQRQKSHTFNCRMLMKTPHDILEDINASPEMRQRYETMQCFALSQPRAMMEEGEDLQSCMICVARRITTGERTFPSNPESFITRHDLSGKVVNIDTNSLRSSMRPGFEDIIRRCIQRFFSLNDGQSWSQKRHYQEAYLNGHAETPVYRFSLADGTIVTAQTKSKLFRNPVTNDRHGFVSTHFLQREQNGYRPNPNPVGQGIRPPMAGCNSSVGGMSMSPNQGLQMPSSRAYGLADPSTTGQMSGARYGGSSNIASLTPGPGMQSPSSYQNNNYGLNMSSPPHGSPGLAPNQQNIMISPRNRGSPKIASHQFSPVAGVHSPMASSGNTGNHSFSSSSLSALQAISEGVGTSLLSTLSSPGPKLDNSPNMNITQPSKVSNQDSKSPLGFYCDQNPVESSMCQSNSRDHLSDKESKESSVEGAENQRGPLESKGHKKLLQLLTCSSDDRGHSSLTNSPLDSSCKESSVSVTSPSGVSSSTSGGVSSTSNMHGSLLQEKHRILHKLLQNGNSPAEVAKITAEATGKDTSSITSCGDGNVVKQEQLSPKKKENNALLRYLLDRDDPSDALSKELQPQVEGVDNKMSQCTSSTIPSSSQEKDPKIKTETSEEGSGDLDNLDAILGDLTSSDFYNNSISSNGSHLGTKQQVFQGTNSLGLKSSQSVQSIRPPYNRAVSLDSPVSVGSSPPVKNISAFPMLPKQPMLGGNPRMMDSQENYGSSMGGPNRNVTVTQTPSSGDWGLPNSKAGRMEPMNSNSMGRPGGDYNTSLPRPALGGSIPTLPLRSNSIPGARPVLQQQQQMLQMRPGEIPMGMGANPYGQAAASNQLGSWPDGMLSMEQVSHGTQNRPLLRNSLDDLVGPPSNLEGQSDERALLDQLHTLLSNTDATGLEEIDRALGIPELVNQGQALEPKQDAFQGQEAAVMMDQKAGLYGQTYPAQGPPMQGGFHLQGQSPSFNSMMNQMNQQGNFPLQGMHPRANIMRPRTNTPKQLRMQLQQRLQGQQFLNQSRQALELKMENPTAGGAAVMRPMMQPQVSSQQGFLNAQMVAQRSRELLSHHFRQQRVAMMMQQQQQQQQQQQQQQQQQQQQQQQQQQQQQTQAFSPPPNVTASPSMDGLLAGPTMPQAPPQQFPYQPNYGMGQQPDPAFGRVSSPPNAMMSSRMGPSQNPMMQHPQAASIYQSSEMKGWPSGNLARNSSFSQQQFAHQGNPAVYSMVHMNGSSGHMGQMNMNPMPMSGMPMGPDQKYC
Chain of Peroxisome proliferator-activated receptor gamma/Nuclear receptor coactivator 2 (P37231 whole entry): as the sequence (P37231 whole entry) above
Chain of Peroxisome proliferator-activated receptor gamma/Nuclear receptor coactivator 2 (Q15596 whole entry, further chain): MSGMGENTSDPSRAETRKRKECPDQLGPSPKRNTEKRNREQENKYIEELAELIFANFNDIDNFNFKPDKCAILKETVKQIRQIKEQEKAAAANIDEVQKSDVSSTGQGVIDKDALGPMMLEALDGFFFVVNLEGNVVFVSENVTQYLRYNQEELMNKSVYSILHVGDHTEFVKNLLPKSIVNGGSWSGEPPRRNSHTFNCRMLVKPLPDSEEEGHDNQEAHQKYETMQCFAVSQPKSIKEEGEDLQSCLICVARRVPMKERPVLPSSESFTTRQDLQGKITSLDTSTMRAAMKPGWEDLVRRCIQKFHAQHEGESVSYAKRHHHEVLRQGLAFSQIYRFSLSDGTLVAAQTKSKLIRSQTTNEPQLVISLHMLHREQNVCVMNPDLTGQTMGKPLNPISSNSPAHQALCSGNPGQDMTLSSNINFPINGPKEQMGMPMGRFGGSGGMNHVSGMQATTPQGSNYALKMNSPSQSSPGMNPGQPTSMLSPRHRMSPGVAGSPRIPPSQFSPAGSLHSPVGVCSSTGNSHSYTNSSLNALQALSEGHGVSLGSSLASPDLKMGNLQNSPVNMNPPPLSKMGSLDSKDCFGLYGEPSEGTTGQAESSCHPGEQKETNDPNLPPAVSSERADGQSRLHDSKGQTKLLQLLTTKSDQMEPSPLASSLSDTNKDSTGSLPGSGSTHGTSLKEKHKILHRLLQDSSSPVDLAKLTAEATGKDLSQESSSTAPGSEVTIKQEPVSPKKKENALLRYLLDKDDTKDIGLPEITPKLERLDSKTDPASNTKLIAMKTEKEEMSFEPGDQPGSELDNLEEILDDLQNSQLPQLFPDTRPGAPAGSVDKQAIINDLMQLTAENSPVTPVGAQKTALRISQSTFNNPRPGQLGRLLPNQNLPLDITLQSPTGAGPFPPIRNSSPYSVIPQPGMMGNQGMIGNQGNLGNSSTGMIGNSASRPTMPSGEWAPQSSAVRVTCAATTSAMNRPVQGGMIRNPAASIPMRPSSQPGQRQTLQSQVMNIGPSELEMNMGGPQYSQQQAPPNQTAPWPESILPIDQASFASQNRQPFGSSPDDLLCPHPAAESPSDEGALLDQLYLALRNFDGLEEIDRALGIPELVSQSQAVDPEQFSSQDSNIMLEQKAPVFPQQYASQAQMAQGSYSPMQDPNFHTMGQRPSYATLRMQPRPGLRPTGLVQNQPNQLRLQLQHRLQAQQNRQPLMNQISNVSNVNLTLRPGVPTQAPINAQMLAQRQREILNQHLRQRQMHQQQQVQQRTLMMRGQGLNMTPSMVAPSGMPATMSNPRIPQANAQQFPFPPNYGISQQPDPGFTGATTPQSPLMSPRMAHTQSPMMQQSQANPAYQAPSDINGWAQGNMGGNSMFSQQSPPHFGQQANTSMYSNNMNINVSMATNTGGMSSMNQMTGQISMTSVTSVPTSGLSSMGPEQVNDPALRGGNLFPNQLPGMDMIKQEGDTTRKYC

## CC(=O)Oc1c(/C=C(\C#N)C(N)=O)[nH]c2ccccc12
Large T antigen
  IC50: 22.8 µM (active)
Protein RecA
  EC50: 0.0314 µM (active)
[1]
  EC50: > 79.4 µM (not active)
[2]
  EC50: 22.6 µM (not active)
[3]
  IC50: > 300 µM (active)
[4]
  EC50: > 99 µM (inactive)
[5]
  EC50: 20.5 µM (inactive)
Vero
  CC50: > 40 µM (active)
[6]
  EC50: > 99 µM (inactive)
[7]
  AC50: > 380 µM (inconclusive)

## CC1=CC(=O)C=C(C)C1=NOS(=O)(=O)c1ccccc1
X-box-binding protein 1
  Absolute IC50 (XBP1): 10 µM
BJ [8]
  EC50: 4.78 µM (active)
BJ [9]
  EC50: 1.35 µM (inconclusive)
[10]
  AC50: 0.928 µM (active)
[11]
  IC50: 5.52 µM (active)
[12]
  EC50: 7.26 µM (active)
[13]
  IC50: 14.4 µM (active)
[14]
  IC50: 165 µM (active)
BJ [15]
  EC50: 4.5 µM (active)
BJ [16]
  EC50: 5.67 µM (inconclusive)
[17]
  IC50: 47.3 µM (active)
J774.A1
  IC50: 0.47 µM (active)

## COc1ccc(/C=C2\SC(=S)N(CCCC(=O)Nc3cccc(C(=O)O)c3)C2=O)cc1OC
[18]
  IC50: 95.9 µM (active)
[19]
  IC50: 1.2 µM (active)
[20]
  IC50: 58.8 µM (active)
[21]
  IC50: 17.7 µM (active)
[22]
  IC50: > 32 µM (inactive)
[23]
  IC50: > 100 µM (inactive)
[24]
  IC50: > 100 µM (inactive)
Prothrombin
  IC50: 23.9 µM (active)
[25]
  IC50: 0.564 µM (active)

## FC(F)(F)c1ccc(Cl)c(Nc2nnc(-c3ccncc3)s2)c1
[26]
  EC50: > 195 µM (inactive)

## C=CCn1c(=O)c2c(nc(-c3ccc(S(=O)(=O)O)cc3)n2C)n(C)c1=O
Trypsin
  AC50: 1.41 µM (active)
CAAX prenyl protease 2
  AC50: 5.44 µM (active)
